Assay results: patent US20020026053A1, “Novel 3-(substituted) -2- indolinones compounds and use thereof as inhibitors of protein kinase activity” (priority 1997, published 2002)

Tested on: FLK-1 receptor
Test: FLK-1 Assay (cellular/catalytic ELISA, VEGF-stimulated phosphotyrosine)
Format: cell-based
Design: concentration or dose not given beside the values
Conditions: protocol P.110
Summary of the method: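 NIH3T3 C7#3 cells engineered to express Flk-1 were serum-starved overnight (0.1% FBS), then exposed to compound for 2 h at 37 °C (final dilution 1:200, 0.5% DMSO) before VEGF stimulation. Lysates captured on anti-FLK-1 antiserum plates; phosphotyrosine detected by UB40 antibody/POD-ABTS ELISA versus untreated controls.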

O=C1Nc2ccc(S(=O)(=O)Nc3ccc(C(F)(F)F)cc3)cc2C1=Cc1ccc(CO)o1 [10739/E11]
Flk Kinase % Inhibition (P.110): 15.3%

COc1ccc(C=C2C(=O)Nc3ccc(S(=O)(=O)N4CCOCC4)cc32)cc1C [10739/F02]
Flk Kinase % Inhibition (P.110): 25.5%

O=C1Nc2ccc(S(=O)(=O)N3CCOCC3)cc2C1=Cc1cccc(OCc2ccccc2)c1 [10739/F03]
Flk Kinase % Inhibition (P.110): 24.5%

O=C1Nc2ccc(S(=O)(=O)N3CCOCC3)cc2C1=Cc1ccc(OCc2ccccc2)cc1 [10739/F04]
Flk Kinase % Inhibition (P.110): 26.3%

O=C1Nc2ccc(S(=O)(=O)N3CCOCC3)cc2C1=CC1COc2ccccc2O1 (stereo not shown) [10739/F05]
Flk Kinase % Inhibition (P.110): 8.7%

O=C1Nc2ccc(S(=O)(=O)N3CCOCC3)cc2C1=Cc1ccc(O)cc1Cl [10739/F06]
Flk Kinase % Inhibition (P.110): 13.7%

O=C1Nc2ccc(S(=O)(=O)N3CCOCC3)cc2C1=Cc1cc(O)c(O)c(O)c1 [10739/F07]
Flk Kinase % Inhibition (P.110): 0.6%

COc1ccc(Oc2cccc(C=C3C(=O)Nc4ccc(S(=O)(=O)N5CCOCC5)cc43)c2)cc1 [10739/F08]
Flk Kinase % Inhibition (P.110): 7.0%

CN(C)CCCOc1ccc(C=C2C(=O)Nc3ccc(S(=O)(=O)N4CCOCC4)cc32)cc1 [10739/F09]
Flk Kinase % Inhibition (P.110): 15.6%

O=C1Nc2ccc(S(=O)(=O)N3CCOCC3)cc2C1=Cc1ccoc1 [10739/F10]
Flk Kinase % Inhibition (P.110): 12.3%

O=C1Nc2ccc(S(=O)(=O)N3CCOCC3)cc2C1=Cc1ccc(CO)o1 [10739/F11]
Flk Kinase % Inhibition (P.110): 11.9%

COc1ccc(C=C2C(=O)Nc3ccc(CCCl)cc32)cc1C [10739/G02]
Flk Kinase % Inhibition (P.110): 5.9%

O=C1Nc2ccc(CCCl)cc2C1=Cc1cccc(OCc2ccccc2)c1 [10739/G03]
Flk Kinase % Inhibition (P.110): 1.9%

O=C1Nc2ccc(CCCl)cc2C1=Cc1ccc(OCc2ccccc2)cc1 [10739/G04]
Flk Kinase % Inhibition (P.110): 4.5%

O=C1Nc2ccc(CCCl)cc2C1=CC1COc2ccccc2O1 (stereo not shown) [10739/G05]
Flk Kinase % Inhibition (P.110): 10.7%

O=C1Nc2ccc(CCCl)cc2C1=Cc1ccc(O)cc1Cl [10739/G06]
Flk Kinase % Inhibition (P.110): 14.0%

O=C1Nc2ccc(CCCl)cc2C1=Cc1cc(O)c(O)c(O)c1 [10739/G07]
Flk Kinase % Inhibition (P.110): −4.9%

COc1ccc(Oc2cccc(C=C3C(=O)Nc4ccc(CCCl)cc43)c2)cc1 [10739/G08]
Flk Kinase % Inhibition (P.110): 15.0%

CN(C)CCCOc1ccc(C=C2C(=O)Nc3ccc(CCCl)cc32)cc1 [10739/G09]
Flk Kinase % Inhibition (P.110): 3.1%

O=C1Nc2ccc(CCCl)cc2C1=Cc1ccoc1 [10739/G10]
Flk Kinase % Inhibition (P.110): −2.0%

O=C1Nc2ccc(CCCl)cc2C1=Cc1ccc(CO)o1 [10739/G11]
Flk Kinase % Inhibition (P.110): 9.8%

COc1ccc(C=C2C(=O)Nc3c(Br)cc(Br)c(C)c32)cc1C [10739/H02]
Flk Kinase % Inhibition (P.110): 2.2%

Cc1c(Br)cc(Br)c2c1C(=Cc1cccc(OCc3ccccc3)c1)C(=O)N2 [10739/H03]
Flk Kinase % Inhibition (P.110): 1.6%

Cc1c(Br)cc(Br)c2c1C(=Cc1ccc(OCc3ccccc3)cc1)C(=O)N2 [10739/H04]
Flk Kinase % Inhibition (P.110): 9.9%

Cc1c(Br)cc(Br)c2c1C(=Cc1ccc(O)cc1Cl)C(=O)N2 [10739/H06]
Flk Kinase % Inhibition (P.110): 35.6%

Cc1c(Br)cc(Br)c2c1C(=Cc1cc(O)c(O)c(O)c1)C(=O)N2 [10739/H07]
Flk Kinase % Inhibition (P.110): −1.4%

COc1ccc(Oc2cccc(C=C3C(=O)Nc4c(Br)cc(Br)c(C)c43)c2)cc1 [10739/H08]
Flk Kinase % Inhibition (P.110): 4.0%

Cc1c(Br)cc(Br)c2c1C(=Cc1ccoc1)C(=O)N2 [10739/H10]
Flk Kinase % Inhibition (P.110): 15.0%
